Experimental data as given in patent publication US20240293558A1, “KRAS INHIBITOR CONJUGATES” (Erasca, Inc., priority 2021, published 2024).
pIC50: −log10 of the molar value.

Tests used:
KRAS G12D = KRAS G12D (Homo sapiens, UniProt P01116, G12D); assay: In-vitro RAS-RAF binding assay (RRB), HTRF/FRET; format: biochemical; set-up: Biotinylated KRAS protein amino acids 1-169 (produced at Erasca); made in house; conditions: Table 2, average of multiple runs of each compound; read-out: Inhibition of RAS-RAF Binding (in-vitro) KRAS (G12D) IC50
Sequence of KRAS G12D (P01116 1-169 isoform P01116-2 G12D): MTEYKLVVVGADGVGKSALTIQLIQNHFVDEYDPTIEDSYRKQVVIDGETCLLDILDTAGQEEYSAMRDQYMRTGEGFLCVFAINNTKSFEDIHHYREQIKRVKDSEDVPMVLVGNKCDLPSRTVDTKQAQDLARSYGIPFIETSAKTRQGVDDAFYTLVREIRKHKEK
Summary of the method: (§1)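 Biotinylated KRAS 1-169 (streptavidin-terbium donor, 30 nM) and GST-cRAF RBD (anti-GST d2 acceptor, 30 nM) in HEPES pH 7.5, NaCl, MgCl2, DTT buffer. After compound incubation, SOS1 catalytic domain plus GTPgS drive 60 min nucleotide exchange. HTRF FRET read at equilibrium, in duplicate.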

[1] = biological target: T1, KRas G12D fused to HiBiT peptide (Homo sapiens, UniProt P01116, G12D); assay: ASPC-1 HiBit assay to determine G12D degradation; format: cell-based; conditions: AsPC-1 HiBiT cells, 24-hour incubation; read-out: ASPC-1 HiBit DC50 (C)
T1 construct: endogenous in cells; host or cells: AsPC-1 HiBiT knock-in single clone (Cas9 RNP + ssODN)
T1 sequence (P01116 1-188 isoform P01116-2 G12D): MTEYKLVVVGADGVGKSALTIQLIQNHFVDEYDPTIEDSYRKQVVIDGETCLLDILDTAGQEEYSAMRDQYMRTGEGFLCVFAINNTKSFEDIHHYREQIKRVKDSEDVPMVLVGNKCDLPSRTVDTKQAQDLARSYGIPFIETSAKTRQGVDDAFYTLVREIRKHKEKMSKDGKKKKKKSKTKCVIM
Protocol: Compounds presented herein induce degradation of the KRas G12D (KRasG12D) upon treatment of engineered cancer cell line.
The degradation of the KRasG12D in cellular environment was measured using engineered homozygous KRasG12D AsPC-1 cell line in which KRas G12D was fused to luminescent HiBiT peptide at the N-terminal. The small (1.3 kDa) HiBiT peptide complements with high affinity to a larger (18 kDa) subunit evolved from NanoLuc (termed LgBiT). The resulting complex (i.e., reconstituted luciferase enzyme) generates bright luminescence that translates to high sensitivity (1 amol), broad dynamic range (four orders of magnitude), and rapid kinetics for real time quantitation.
To generate HiBit KRasG12D knock-in cell line, sgRNA (SEQ. ID NO: 1) and ssODN (SEQ. ID NO: 2) were designed and synthesized at GenScript.
RNP complex was generated by mixing of 100 pmol of Cas9 protein to PCR tubes containing 300 pmol sgRNA incubating the resultant complex at room temperature for 20 min. […] ssODN was added to RNP complex slowly and RNP-ssODN complex was incubated at room temperature for 10 min. RNP-ssODN complex was mixed with […] of AsPC-1 cells (1×10^6 cells total) and electroporated using Nucleofactor (Program CM-150). Cells were then incubated at ambient temperature for 5 min and transferred to a six-well plate containing 2 ml growth medium.
To select pools with the highest luminescence signal, 10^4 cells of parental AsPC-1 and transfected pools were plated in solid white 384-well tissue culture plates. 24 hours after seeding, HiBiT was detected using the Nano-Glo HiBiT Lytic Detection System (Promega) following manufacturer's instructions. Briefly, […] of Nano-Glo HiBiT Lytic Detection Reagent was added directly to the cells and mixed by inversion before recording luminescence on an Envision (Perkin-Elmer) with 0.5 s integration time.
Single clones were isolated from stable pool by limited dilution method and presence of HiBiT knock-in was verified by TA cloning and subsequent sequencing. Additionally, western blotting analysis was conducted to confirm selection of single clones with high luminescence signal.
For DC50S measurements, AsPC-1 HiBiT single clone cells were grown in RPMI 1640 medium (Invitrogen 22400-089) supplemented with 10% fetal bovine serum. Cells were seeded in 384-well tissue culture plates at a density of 7,000 cells/well and allowed to attach for 24 hours.
Test compounds were distributed directly into assay plate with the adjustment for DMSO concentration using Tecan HP D300e. For most of the experiments, the final concentration of compounds starts from 10 μM, 3-fold dilution dose response and 10 doses. […] DMSO final concentration is 1%. Each concentration of exemplary compound was tested as singleton. The negative control wells were cells with DMSO only, and the positive control wells were cells with […] inhibitor.
Following 24-hour incubation with the compounds plate and Nano-Glo® HiBiT Lytic reagents were equilibrated to room temperature. 20 μL of HiBiT Lytic reagent were added to each well. The assay plate was incubated on digital microplate shaker (350 rpm) for 20 min followed by centrifugation at 500 g for 1 min. Luminescence was recorded using Envision (Perkin-Elmer) using aperture 384-L1 with 0.1 s integration time.
HiBiT signal are used to calculate the % degradation at given compound concentration using the following formula:
% Degradation=(1−(Sample HiBiT signal−Ave Min signal)/(Ave Max signal−Ave Min signal))*100%
For DC50 calculation, the data with the hook effect were removed first and DC50S was reported using a 4-parameter fit of dose response curve using GraphPad in those cases where maximum % degradation was >50% and Minimal % degradation was <50%. The decrease in DC50 reflects that the exemplary compound led to a higher level of degradation of KRasG12D than another exemplary compound at specific timepoint of treatment of cancer cell line. […]

KRAS (WT) = biological target: T2, KRAS (WT) (Homo sapiens, UniProt P01116); assay: In-vitro RAS-RAF binding assay (RRB), HTRF/FRET; format: biochemical; conditions: Table 2, average of multiple runs of each compound; read-out: Inhibition of RAS-RAF Binding (in-vitro) KRAS (WT) IC50
T2 construct: Biotinylated KRAS protein amino acids 1-169 (produced at Erasca); made in house
T2 sequence (P01116 1-169 isoform P01116-2): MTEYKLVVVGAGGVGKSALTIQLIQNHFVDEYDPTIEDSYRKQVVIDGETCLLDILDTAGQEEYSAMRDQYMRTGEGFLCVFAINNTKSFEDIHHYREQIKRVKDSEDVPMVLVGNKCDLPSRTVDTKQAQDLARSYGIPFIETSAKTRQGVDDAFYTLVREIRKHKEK
Summary of the method: as §1

## C#Cc1c(F)ccc2cc(O)cc(-c3ncc4c(N5CC6CCC(C5)N6)nc(OCCN5CCC(COc6cc([C@H](C(=O)N7C[C@H](O)C[C@H]7C(=O)N[C@@H](C)c7ccc(-c8scnc8C)cc7)C(C)C)on6)CC5)nc4c3F)c12 [Example 60, (2S,4R)-1-((2R)-2-(3-((1-(2-((4-(3,8-diazabicyclo[3.2.1]octan-3-yl)-7-(8-ethynyl-7-fluoro-3-hydroxynaphthalen-1-yl)-8-fluoropyrido[4,3-d]pyrimidin-2-yl)oxy)ethyl)piperidin-4-yl)methoxy)isoxazol-5-yl)-3-methylbutanoyl)-4-hydroxy-N-((S)-1-(4-(4-methylthiazol-5-yl)phenyl)ethyl)pyrrolidine-2-carboxamide]
KRAS G12D
  pIC50: 8.02
[1]
  DC50: 108 nM
KRAS (WT)
  pIC50: 6.72

## CC(C)[C@H](C(=O)N1C[C@H](O)C[C@H]1C(=O)N[C@@H](C)c1ccc(-c2c(F)cc(F)cc2F)cc1)c1cc(N2CC3(CCN(CCOc4nc(N5CC6CCC(C5)N6)c5cc(Cl)c(-c6ccc(F)c7sc(N)c(C#N)c67)c(F)c5n4)CC3)C2)no1 [Example 67, (2S,4R)-1-((2S)-2-(3-(7-(2-((7-(2-amino-3-cyano-7-fluorobenzo[b]thiophen-4-yl)-4-(3,8-diazabicyclo[3.2.1]octan-3-yl)-6-chloro-8-fluoroquinazolin-2-yl)oxy)ethyl)-2,7-diazaspiro[3.5]nonan-2-yl)isoxazol-5-yl)-3-methylbutanoyl)-4-hydroxy-N-((S)-1-(2′,4′,6′-trifluoro-[1,1′-biphenyl]-4-yl)ethyl)pyrrolidine-2-carboxamide]
KRAS G12D
  pIC50: 7.70
[1]
  DC50: ≥ 10000 nM
KRAS (WT)
  pIC50: 5.30

## CC(C)[C@@H](C(=O)N1C[C@H](O)C[C@H]1C(=O)N[C@@H](C)c1ccc(-c2c(F)cc(F)cc2F)cc1)c1cc(N2CC3(CCN(CCOc4nc(N5CC6CCC(C5)N6)c5cc(Cl)c(-c6ccc(F)c7sc(N)c(C#N)c67)c(F)c5n4)CC3)C2)no1 [Example 68, (2S,4R)-1-((2R)-2-(3-(7-(2-((7-(2-amino-3-cyano-7-fluorobenzo[b]thiophen-4-yl)-4-(3,8-diazabicyclo[3.2.1]octan-3-yl)-6-chloro-8-fluoroquinazolin-2-yl)oxy)ethyl)-2,7-diazaspiro[3.5]nonan-2-yl)isoxazol-5-yl)-3-methylbutanoyl)-4-hydroxy-N-((S)-1-(2′,4′,6′-trifluoro-[1,1′-biphenyl]-4-yl)ethyl)pyrrolidine-2-carboxamide]
KRAS G12D
  pIC50: 7.72
[1]
  DC50: 1280 nM
KRAS (WT)
  pIC50: < 5.00

## CC(C)[C@@H](C(=O)N1C[C@H](O)C[C@H]1C(=O)N[C@@H](C)c1ccc(-c2c(F)cc(F)cc2F)cc1)c1cc(OCC2(F)CCN(CCOc3nc(N4CC5CCC(C4)N5)c4cc(Cl)c(-c5ccc(F)c6sc(N)c(C#N)c56)c(F)c4n3)CC2)no1 [Example 69, (2S,4R)-1-((2R)-2-(3-((1-(2-((7-(2-amino-3-cyano-7-fluorobenzo[b]thiophen-4-yl)-4-(3,8-diazabicyclo[3.2.1]octan-3-yl)-6-chloro-8-fluoroquinazolin-2-yl)oxy)ethyl)-4-fluoropiperidin-4-yl)methoxy)isoxazol-5-yl)-3-methylbutanoyl)-4-hydroxy-N-((S)-1-(2′,4′,6′-trifluoro-[1,1′-biphenyl]-4-yl)ethyl)pyrrolidine-2-carboxamide]
KRAS G12D
  pIC50: 7.45
[1]
  DC50: 525 nM
KRAS (WT)
  pIC50: < 5.00

## CC(C)[C@@H](C(=O)N1C[C@H](O)C[C@H]1C(=O)N[C@@H](C)c1ccc(-c2c(F)cccc2F)cc1)c1cc(N2CC3(CCN(CCOc4nc(N5CC6CCC(C5)N6)c5cc(Cl)c(-c6ccc(F)c7sc(N)c(C#N)c67)c(F)c5n4)CC3)C2)no1 [Example 70, (2S,4R)-1-((2R)-2-(3-(7-(2-((7-(2-amino-3-cyano-7-fluorobenzo[b]thiophen-4-yl)-4-(3,8-diazabicyclo[3.2.1]octan-3-yl)-6-chloro-8-fluoroquinazolin-2-yl)oxy)ethyl)-2,7-diazaspiro [3.5]nonan-2-yl)isoxazol-5-yl)-3-methylbutanoyl)-N-((S)-1-(2′,6′-difluoro-[1,1′-biphenyl]-4-yl)ethyl)-4-hydroxypyrrolidine-2-carboxamide]
KRAS G12D
  pIC50: 7.54
[1]
  DC50: 501 nM
KRAS (WT)
  pIC50: 5.26
